The record followed here is doi:10.1101/2025.10.13.682155v1 (biorxiv, 2025).

The experiment addresses T1, hCNPY4 (FLAG-tagged human Canopy4) (Homo sapiens, UniProt Q8N129).
T1 sequence (Q8N129 22-248): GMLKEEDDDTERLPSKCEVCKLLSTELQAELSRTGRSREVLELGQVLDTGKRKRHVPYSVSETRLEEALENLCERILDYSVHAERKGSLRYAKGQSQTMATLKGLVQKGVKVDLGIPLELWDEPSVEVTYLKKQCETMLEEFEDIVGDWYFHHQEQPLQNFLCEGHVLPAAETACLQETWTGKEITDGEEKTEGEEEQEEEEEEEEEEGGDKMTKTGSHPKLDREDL
Put plainly: fluorescence polarization, direct titration. It counts as binding. (Polarisation of emitted light reports the rotation of a fluorescent probe.)
As a reminder, the Kd is a measure of binding affinity in units of concentration. Lower therefore signals a tighter complex. In the case of `CCCCCCCCCCCCC/C=C/[C@@H](O)[C@H](CO)NC(=O)CCCCCNc1ccc([N+](=O)[O-])c2nonc12` [NBD-ceramide 6:0], the affinity, expressed as Kd, was 80 ± 25 nM.
The compound `CCCCCCCCCCCCC/C=C/[C@@H](O)[C@H](COP(=O)(O)O)NC(=O)CCCCCNc1ccc([N+](=O)[O-])c2nonc12` [NBD-ceramide-1-phosphate 6:0] had a Kd of 130 ± 40 nM.
The compound `CCCCCCCCCCCCC/C=C/[C@@H](O)[C@H](COP(=O)([O-])OCC[N+](C)(C)C)NC(=O)CCCCCNc1ccc([N+](=O)[O-])c2nonc12` [NBD-sphingomyelin 6:0] displayed a dissociation constant (Kd) of 280 ± 120 nM.
